Assay results from ChEMBL document CHEMBL1155481, “N-Hydroxybenzimidazole inhibitors of ExsA MAR transcription factor in Pseudomonas aeruginosa: In vitro anti-virulence activity and metabolic stability” (Bioorg Med Chem Lett, 2010).

Tests used:
[1] = molecular target: T1, HTH-type transcriptional regulator ExsA (Pseudomonas aeruginosa (strain ATCC 15692 / PAO1 / 1C / PRS 101 / LMG12228), UniProt P26993); assay: Inhibition of Pseudomonas aeruginosa PAO1 ExsA DNA binding activity
T1 sequence (P26993 whole entry): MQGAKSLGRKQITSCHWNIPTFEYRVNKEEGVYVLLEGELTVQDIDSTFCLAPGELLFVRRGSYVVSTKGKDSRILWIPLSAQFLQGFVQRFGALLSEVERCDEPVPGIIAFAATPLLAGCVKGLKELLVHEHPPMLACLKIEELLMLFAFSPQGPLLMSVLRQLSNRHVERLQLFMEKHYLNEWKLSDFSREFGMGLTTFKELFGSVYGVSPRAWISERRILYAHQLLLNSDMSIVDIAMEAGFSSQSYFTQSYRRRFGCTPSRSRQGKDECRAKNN

[2] = system: J774.A1; assay: Cytoprotective activity against Pseudomonas aeruginosa-induced cytotoxicity in mouse J774A1 cells assessed as LDH release at 100 uM; format: functional
[3] = Chemical stability of the compound; format: physicochemical
[4] = molecular target: T1, HTH-type transcriptional regulator ExsA; assay: Inhibition of Pseudomonas aeruginosa 388 ExsA DNA binding activity
[5] = system: Liver microsomes; assay: Metabolic stability in human liver microsome; format: ADME

CSc1ccc(/C=C/C(=O)Nc2ccc(-c3nc4ccc([N+](=O)[O-])cc4n3O)cc2)cc1
IC50 [1]: 10.4 µM | Activity [2]: >100% | Stability [3]: Stable

CSc1ccc(/C=C/C(=O)Nc2ccc(-c3nc4ccc([N+](=O)[O-])cc4n3O)cc2)cn1
IC50 [1]: 6.9 µM | Activity [2]: 52.7% | Stability [3]: Stable

CC(=O)c1ccc(/C=C/C(=O)Nc2ccc(-c3nc4c(CC(=O)O)cc([N+](=O)[O-])cc4n3O)cc2)cc1
IC50 [1]: 3.7 µM | Activity [2]: 65.4% | Stability [3]: Stable

CSc1ccc(/C=C/C(=O)Nc2ccc(-c3nc4ccc(C#N)cc4n3O)cc2)cn1
IC50 [1]: 3.5 µM | Activity [2]: 46.6% | Stability [3]: Stable

CC(=O)c1ccc(/C=C/C(=O)N(CC(N)=O)c2ccc(-c3nc4ccc([N+](=O)[O-])cc4n3O)cc2)cc1
IC50 [1]: > 47.5 µM | Stability [3]: Stable

CC(=O)c1ccc(/C=C/C(=O)N(CC(N)=O)c2ccc(-c3nc4ccc(C#N)cc4n3O)cc2)cc1
IC50 [1]: > 49 µM | Stability [3]: Stable

CC(=O)c1ccc(/C=C/C(=O)N(CC(=O)O)c2ccc(-c3nc4ccc(C#N)cc4n3O)cc2)cc1
IC50 [1]: > 51 µM | Stability [3]: Stable

CC(=O)c1ccc(/C=C/C(=O)Nc2ccc(-c3nc4c(CC(=O)O)cc([N+](=O)[O-])cc4n3O)cc2)cn1
IC50 [1]: 4.6 µM | Activity [2]: 33.1% | Stability [3]: Stable

O=C(/C=C/c1ccc(C(O)(O)C(F)(F)F)cc1)Nc1ccc(-c2nc3ccc([N+](=O)[O-])cc3n2O)cc1
IC50 [1]: > 100 µM | Stability [3]: Stable

CSc1ccc(/C=C/C(=O)Nc2ccc(-c3nc4ccc(C#N)cc4n3O)cc2)cc1
IC50 [1]: 7.3 µM | Activity [2]: >100% | Stability [3]: Stable

CC(=O)c1ccc(/C=C/C(=O)Nc2ccc(-c3nc4ccc([N+](=O)[O-])cc4n3O)cc2)cn1
IC50 [4]: 7.5 µM | Activity [2]: 12.1% | Stability [3]: Stable

CC(=O)c1ccc(/C=C/C(=O)Nc2ccc(-c3nc4ccc([N+](=O)[O-])cc4n3O)cc2)cc1
IC50 [4]: 3 µM | Activity [2]: 22.4% | Stability [3]: Stable | Stability [5]: Stable

CC(=O)c1ccc(/C=C/C(=O)Nc2ccc(-c3nc4ccc(C#N)cc4n3O)cc2)cc1
IC50 [4]: 13 µM | Activity [2]: 19.2% | Stability [3]: Stable | Stability [5]: Stable

O=C(/C=C/c1ccc(C(F)(F)F)nc1)Nc1ccc(-c2nc3ccc([N+](=O)[O-])cc3n2O)cc1
IC50 [1]: 6.7 µM | Activity [2]: 78.5% | Stability [3]: Stable

O=C(/C=C/c1ccc(-n2ccnc2)nc1)Nc1ccc(-c2nc3ccc([N+](=O)[O-])cc3n2O)cc1
IC50 [1]: 31.2 µM | Stability [3]: Stable

CN(C)c1ccc(/C=C/C(=O)Nc2ccc(-c3nc4ccc([N+](=O)[O-])cc4n3O)cc2)cn1
IC50 [1]: > 100 µM | Stability [3]: Stable

O=C(/C=C/c1ccc(F)cc1)Nc1ccc(-c2nc3ccc([N+](=O)[O-])cc3n2O)cc1
Stability [5]: Stable
